Experimental data as given in patent US12384777B2 (Tay Therapeutics Limited, priority 2019, dated 2025).
Like-named read-outs stand apart in the source and are kept apart here.

How the values were obtained:
[1] = target: BRD4 BD1 (Homo sapiens (Human), UniProt O60885); experiment: Bromodomain binding assay (T7 phage display, qPCR), BRD4 BD1; conditions: read-out: BRD4 BD1 Kd
Description: (§1) T7 phage strains displaying bromodomains were grown in parallel in 24-well blocks in an E. coli host derived from the BL21 strain. E. coli were grown to log-phase and infected with T7 phage from a frozen stock (multiplicity of infection=0.4) and incubated with shaking at 32° C. until lysis (90-150 min). The lysates were centrifuged (5,000×g) and filtered (0.2 μm) to remove cell debris. Streptavidin-coated magnetic beads were treated with biotinylated small molecule or acetylated peptide ligands for 30 min at RT to generate affinity resins for bromodomain assays. The ligated beads were blocked with excess biotin and washed with blocking buffer (SeaBlock (Pierce), 1% BSA, 0.05% Tween 20, 1 mM DTT) to remove unbound ligand and to reduce non-specific phage binding. Binding reactions were assembled by combining bromodomains, ligated affinity beads, and test compounds in 1× binding buffer (16% SeaBlock, 0.32×PBS, 0.02% BSA, 0.04% Tween 20, 0.004% Sodium azide, 7.9 mM DTT). Test compounds were prepared as 1000× stocks in 100% DMSO and subsequently diluted 1:25 in MEG. The compounds were then diluted directly into the assays such that the final concentrations of DMSO and MEG were 0.1% and 2.4%, respectively. All reactions were performed in polypropylene 384-well plates in a final volume of 0.02 ml. The assay plates were incubated at RT with shaking for 1 hr and the affinity beads were washed with wash buffer (1×PBS, 0.05% Tween 20). The beads were then re-suspended in elution buffer (1×PBS, 0.05% Tween 20, 2 μM non-biotinylated affinity ligand) and incubated at RT with shaking for 30 min. The bromodomain concentration in the eluates was measured by quantitative polymerase chain reaction (qPCR).
(§2) An 11-point 3-fold serial dilution of each test compound was prepared in 100% DMSO at 1000× final test concentration. All compounds were distributed by acoustic transfer (non-contact dispensing) in 100% DMSO. The compounds were then diluted directly into the assays such that the final concentration of DMSO was 0.09%. Most dissociation constants were determined using a compound top concentration=10,000 nM. If the initial dissociation constant determined was <0.169 nM (the lowest concentration tested), the measurement was repeated with a serial dilution starting at a lower top concentration.
(§3) The same bromodomain assay procedure as that outlined above was used. Example compounds were screened at 30 times their Kd, and results for primary screen binding interactions are reported as ‘% Ctrl’, where lower numbers indicate stronger hits in the matrix.

[2] = tested on: human liver hepatocytes; experiment: Intrinsic clearance in human liver hepatocytes; assay type: in vitro ADME; conditions: human cryopreserved hepatocytes, 0.5 μM test compound
Description: Vials of human cryopreserved hepatocytes, supplied by Life Technologies, were thawed according to manufacturer's instructions and cells re-suspended in Williams Medium E (WME) containing cell maintenance supplement pack (CM4000, Life Technologies). Hepatocytes were incubated in suspension (0.5 million cells/mL) in 48 well non-collagen coated cell culture plates for 10 min at 37° C., 5% CO2. Upon addition of an equal volume of supplemented WME containing 1 μM test compound, an aliquot of incubation solution was removed to acetonitrile containing internal standard (final concentration 0.5 μM test compound and a cell density of 0.25 million cells/mL). Similarly, aliquots were removed at 3, 6, 9, 15, 30, 45, 60, 90 and 120 min. 100 μL of 80:20 water:acetonitrile was added to all samples and the analysis plate was centrifuged for 10 min at RT prior to injection and analysis of samples by UPLC-MS/MS. The response (area ratio of test compound to internal standard) was plotted against time using an exponential decay model from which rate of disappearance was calculated.

[3] = tested on: CD4+ T-cells stimulated by CD2, CD3 and CD28 antibodies; experiment: Cellular activity IL-4: reduction of IL-4 levels in activated CD4+ T-cells; assay type: cell-based, human
Description: • 1. CD4^+ T-cells are isolated from cryopreserved human peripheral blood mononuclear cells (PBMCs) using EasySep™ Kit (Cat. No. 17952, Stemcell Technologies). • 2. CD2, CD3 and CD28 antibodies coated beads from T cell Activation/Expansion Kit (Cat. No. 130-091-441, Miltenyi Biotec) are added to the CD4^+ T-cells at a bead-to-cell ratio of 1:2. • 3. CD4^+ T-cells along with the beads are seeded at 2×10^5 cells/well in a round bottom 96-well plate and treated with different compounds and controls in a total volume of 200 μl. • 4. The cells are cultured for 48 hrs at 37° C., 5% CO2. • 5. Supernatant is collected and IL-4 is analysed by ELISA.

[4] = target: BRD4 BD2 (Homo sapiens (Human), UniProt O60885); experiment: Bromodomain binding assay (T7 phage display, qPCR), BRD4 BD2; conditions: read-out: BRD4 BD2 Kd
Description: as §1, §2, §3

[5] = Homo sapiens, T-cell, 48 hrs, ELISA, read-out: EC50 reduction of IL-4 levels
[6] = Homo sapiens, T-cell, read-out: cellular EC50 values, reduction of IL-4 levels

Row | Structure (SMILES) | Kd [1] | Intrinsic clearance, % Liver Blood Flow [2] | EC50 [3, 5] | Kd [4] | EC50 [3, 6] | EC50 ([3]; 48 hrs, ELISA, read-out: EC50 reduction of IL-4 levels)
1 | Cn1cc(Oc2cccc(O)c2)c(-c2cn(C)c(=O)c3[nH]ccc23)cc1=O [Example 24, 4-(5-(3-hydroxyphenoxy)-1-methyl-2-oxo-1,2-dihydropyridin-4-yl)-6-methyl-1,6-dihydro-7H-pyrrolo[2,3-c]pyridin-7-one] | 10 to 100 nM | 45 % Liver Blood Flow | 100 to 1000 nM | – | – | –
2 | Cc1cc(F)cc(C)c1Oc1c(-c2cn(C)c(=O)c3[nH]c(C(=O)NC4(C)CC4(F)F)cc23)ccn(C)c1=O (stereo not drawn) [Example 44, N-(2,2-difluoro-1-methylcyclopropyl)-4-(3-(4-fluoro-2,6-dimethylphenoxy)-1-methyl-2-oxo-1,2-dihydropyridin-4-yl)-6-methyl-7-oxo-6,7-dihydro-1H-pyrrolo[2,3-c]pyridine-2-carboxamide] | > 1000 nM | 34 % Liver Blood Flow | 100 to 1000 nM | 10 to 100 nM | – | –
3 | CCCOc1ncsc1-c1cn(C)c(=O)c2[nH]ccc12 [Example 46, 6-methyl-4-(4-propoxythiazol-5-yl)-1,6-dihydro-7H-pyrrolo[2,3-c]pyridin-7-one] | 100 to 1000 nM | 89 % Liver Blood Flow | 10 to 100 nM | 10 to 100 nM | < 100 nM | –
4 | Cn1cc(-c2scnc2Oc2ccc(O)cc2)c2cc[nH]c2c1=O [Example 20, 4-(4-(4-hydroxyphenoxy)thiazol-5-yl)-6-methyl-1,6-dihydro-7H-pyrrolo[2,3-c]pyridin-7-one] | 10 to 100 nM | – | 10 to 100 nM | – | < 100 nM | –
5 | Cn1ccc(-c2cn(C)c(=O)c3[nH]ccc23)c(Oc2ccccc2)c1=O [Example 5, 6-methyl-4-(1-methyl-2-oxo-3-phenoxy-1,2-dihydropyridin-4-yl)-1,6-dihydro-7H-pyrrolo[2,3-c]pyridin-7-one] | 10 to 100 nM | <34 % Liver Blood Flow | ≤ 10 nM | ≤ 10 nM | < 100 nM | –
6 | Cn1cc(-c2scnc2Oc2ccccc2)c2cc[nH]c2c1=O [Example 4, 6-methyl-4-(4-phenoxythiazol-5-yl)-1,6-dihydro-7H-pyrrolo[2,3-c]pyridin-7-one] | 10 to 100 nM | 80 % Liver Blood Flow | 10 to 100 nM | ≤ 10 nM | < 100 nM | –
7 | Cn1cc(-c2cc(O)ccc2Oc2ccccc2)ccc1=O [Example 8, 5-(5-hydroxy-2-phenoxyphenyl)-1-methyl pyridin-2(1H)-one] | 10 to 100 nM | 95 % Liver Blood Flow | 100 to 1000 nM | – | – | –
8 | Cn1cc(-c2scnc2Oc2ccccc2)ccc1=O [Example 18, 1-methyl-5-(4-phenoxythiazol-5-yl)pyridin-2(1H)-one] | 100 to 1000 nM | 69 % Liver Blood Flow | > 1000 nM | – | – | –
9 | Cc1cc(F)cc(C)c1Oc1c(-c2ccc(=O)n(C)c2)ccn(C)c1=O [Example 39, 3′-(4-fluoro-2,6-dimethylphenoxy)-1,1′-dimethyl-[3,4′-bipyridine]-2′,6(1H,1′H)-dione] | > 1000 nM | – | > 1000 nM | 100 to 1000 nM | – | –
10 | Cc1cc(F)cc(C)c1Oc1c(-c2cn(C)c(=O)c3[nH]ccc23)ccn(C)c1=O [Example 47, 4-(3-(4-fluoro-2,6-dimethylphenoxy)-1-methyl-2-oxo-1,2-dihydropyridin-4-yl)-6-methyl-1,6-dihydro-7H-pyrrolo[2,3-c]pyridin-7-one] | – | – | – | ≤ 10 nM | – | 100 to 1000 nM
11 | Cn1cc(-c2cc(O)ccc2OC2CCC2)c2cc[nH]c2c1=O [Example 10, 4-(2-cyclobutoxy-5-hydroxyphenyl)-6-methyl-1,6-dihydro-7H-pyrrolo[2,3-c]pyridin-7-one] | ≤ 10 nM | 93 % Liver Blood Flow | 10 to 100 nM | – | < 100 nM | –
12 | Cc1cc(F)cc(C)c1Oc1c(-c2cn(C)c(=O)c3[nH]c(C(=O)NC(C)(C)C(F)(F)F)cc23)ccn(C)c1=O [Example 43] | > 1000 nM | 38 % Liver Blood Flow | 100 to 1000 nM | 10 to 100 nM | – | –
13 | Cn1cc(-c2scnc2OC2CCC2)c2cc[nH]c2c1=O [Example 45, 4-(4-cyclobutoxythiazol-5-yl)-6-methyl-1,6-dihydro-7H-pyrrolo[2,3-c]pyridin-7-one] | 100 to 1000 nM | 86 % Liver Blood Flow | – | 10 to 100 nM | – | –
14 | Cn1cc(Oc2ccccc2)c(-c2cn(C)c(=O)c3[nH]ccc23)cc1=O [Example 7, 6-methyl-4-(1-methyl-2-oxo-5-phenoxy-1,2-dihydropyridin-4-yl)-1,6-dihydro-7H-pyrrolo[2,3-c]pyridin-7-one] | 10 to 100 nM | <34 % Liver Blood Flow | 10 to 100 nM | ≤ 10 nM | < 100 nM | –
15 | Cc1cc(F)cc(C)c1Oc1c(-c2cn(C)c(=O)c3[nH]ccc23)ccn(C)c1=O [Example 40, 4-(3-(4-fluoro-2,6-dimethylphenoxy)-1-methyl-2-oxo-1,2-dihydropyridin-4-yl)-6-methyl-1,6-dihydro-7H-pyrrolo[2,3-c]pyridin-7-one] | 100 to 1000 nM | <34 % Liver Blood Flow | 100 to 1000 nM | 10 to 100 nM | – | –
16 | Cc1cc(F)cc(C)c1Oc1c(-c2cn(C)c(=O)c3[nH]c(C(=O)NC(C)(C)C)cc23)ccn(C)c1=O [Example 42, N-(tert-butyl)-4-(3-(4-fluoro-2,6-dimethylphenoxy)-1-methyl-2-oxo-1,2-dihydropyridin-4-yl)-6-methyl-7-oxo-6,7-dihydro-1H-pyrrolo[2,3-c]pyridine-2-carboxamide] | > 1000 nM | <34 % Liver Blood Flow | 100 to 1000 nM | ≤ 10 nM | – | –
